Measured values reported in the supplement of paper PMC10307832.

Experiments:
Test in all cases: relative viability (nuclei count vs DMSO), 5 days (fraction); higher = more cells survive
A-427 = test system: A-427
Summary of the method: (§1)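 Lung cancer cell lines in 1536-well plates got either a single drug or a fixed anchor-drug dose together with five library-drug doses (not always all listed) in √10 steps, by pin tool, on the day after seeding. Nuclei were counted after 5 days, and relative viability is the treated-to-vehicle ratio of nuclei counts. Values are medians of duplicate plates.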

COR-L 105 = test system: COR-L 105
Summary of the method: as §1

EPLC-272H = test system: EPLC-272H
Summary of the method: as §1

HOP-62 = test system: HOP-62
Summary of the method: as §1

LC-2-ad = test system: LC-2-ad
Summary of the method: as §1

LCLC-97TM1 = test system: LCLC-97TM1
Summary of the method: as §1

LU99A = test system: LU99A
Summary of the method: as §1

LXF-289 = test system: LXF-289
Summary of the method: as §1

NCI-H1755 = test system: NCI-H1755
Summary of the method: as §1

NCI-H1792 = test system: NCI-H1792
Summary of the method: as §1

NCI-H1793 = test system: NCI-H1793
Summary of the method: as §1

NCI-H1915 = test system: NCI-H1915
Summary of the method: as §1

NCI-H1944 = test system: NCI-H1944
Summary of the method: as §1

NCI-H1975 = test system: NCI-H1975
Summary of the method: as §1

NCI-H2085 = test system: NCI-H2085
Summary of the method: as §1

NCI-H2170 = test system: NCI-H2170
Summary of the method: as §1

NCI-H358 = test system: NCI-H358
Summary of the method: as §1

NCI-H460 = test system: NCI-H460
Summary of the method: as §1

SK-LU-1 = test system: SK-LU-1
Summary of the method: as §1

SW 900 = test system: SW 900
Summary of the method: as §1

UMC-11 = test system: UMC-11
Summary of the method: as §1

With NC(=O)Nc1cc(-c2cccc(F)c2)sc1C(=O)N[C@H]1CCCNC1 [AZD7762] + CCNC(=O)c1noc(-c2cc(C(C)C)c(O)cc2O)c1-c1ccc(CN2CCOCC2)cc1 [Luminespib] (partner 0.01 µM) the relative viability (A-427; first compound 0.01 µM) was 1.23, the relative viability (A-427; first compound 0.03162 µM) was 0.967 and the relative viability (A-427; first compound 0.1 µM) was 0.815. For the same compound, the relative viability (A-427; first compound 0.3162 µM) was 0.58, the relative viability (A-427; first compound 1 µM) was 0.322 and the relative viability (COR-L 105; first compound 0.01 µM) was 0.743. The relative viability (COR-L 105; first compound 0.03162 µM) was 0.585, the relative viability (COR-L 105; first compound 0.1 µM) was 0.696 and the relative viability (COR-L 105; first compound 0.3162 µM) was 0.648. For the same compound, the relative viability (COR-L 105; first compound 1 µM) was 0.401, the relative viability (EPLC-272H; first compound 0.01 µM) was 0.55 and the relative viability (EPLC-272H; first compound 0.03162 µM) was 0.303. For the same compound, the relative viability (EPLC-272H; first compound 0.1 µM) was 0.319, the relative viability (EPLC-272H; first compound 0.3162 µM) was 0.459 and the relative viability (EPLC-272H; first compound 1 µM) was 0.143. The relative viability (HOP-62; first compound 0.01 µM) was 0.983, the relative viability (HOP-62; first compound 0.03162 µM) was 0.931 and the relative viability (HOP-62; first compound 0.1 µM) was 0.606. It also gave a relative viability (HOP-62; first compound 0.3162 µM) of 0.902, a relative viability (HOP-62; first compound 1 µM) of 0.65 and a relative viability (LC-2-ad; first compound 0.01 µM) of 1.27. For the same compound, the relative viability (LC-2-ad; first compound 0.03162 µM) was 1.09, the relative viability (LC-2-ad; first compound 0.1 µM) was 1.05 and the relative viability (LC-2-ad; first compound 0.3162 µM) was 0.991. The relative viability (LC-2-ad; first compound 1 µM) was 0.646, the relative viability (LCLC-97TM1; first compound 0.01 µM) was 0.876 and the relative viability (LCLC-97TM1; first compound 0.03162 µM) was 0.706. The relative viability (LCLC-97TM1; first compound 0.1 µM) was 0.738, the relative viability (LCLC-97TM1; first compound 0.3162 µM) was 0.771 and the relative viability (LCLC-97TM1; first compound 1 µM) was 0.786. It also gave a relative viability (LU99A; first compound 0.01 µM) of 0.255, a relative viability (LU99A; first compound 0.03162 µM) of 0.265 and a relative viability (LU99A; first compound 0.1 µM) of 0.357. For the same compound, the relative viability (LU99A; first compound 0.3162 µM) was 0.201, the relative viability (LU99A; first compound 1 µM) was 0.207 and the relative viability (LXF-289; first compound 0.01 µM) was 0.673. For the same compound, the relative viability (LXF-289; first compound 0.03162 µM) was 0.601, the relative viability (LXF-289; first compound 0.1 µM) was 0.753 and the relative viability (LXF-289; first compound 0.3162 µM) was 0.724. The relative viability (LXF-289; first compound 1 µM) was 0.456, the relative viability (NCI-H1755; first compound 0.01 µM) was 0.498 and the relative viability (NCI-H1755; first compound 0.03162 µM) was 0.344. For the same compound, the relative viability (NCI-H1755; first compound 0.1 µM) was 0.244, the relative viability (NCI-H1755; first compound 0.3162 µM) was 0.225 and the relative viability (NCI-H1755; first compound 1 µM) was 0.275. It also gave a relative viability (NCI-H1792; first compound 0.01 µM) of 0.586, a relative viability (NCI-H1792; first compound 0.03162 µM) of 0.472 and a relative viability (NCI-H1792; first compound 0.1 µM) of 0.392. It also gave a relative viability (NCI-H1792; first compound 0.3162 µM) of 0.484, a relative viability (NCI-H1792; first compound 1 µM) of 0.481 and a relative viability (NCI-H1793; first compound 0.01 µM) of 0.175. For the same compound, the relative viability (NCI-H1793; first compound 0.03162 µM) was 0.195, the relative viability (NCI-H1793; first compound 0.1 µM) was 0.163 and the relative viability (NCI-H1793; first compound 0.3162 µM) was 0.403. For the same compound, the relative viability (NCI-H1793; first compound 1 µM) was 0.179, the relative viability (NCI-H1915; first compound 0.01 µM) was 0.828 and the relative viability (NCI-H1915; first compound 0.03162 µM) was 0.829. The relative viability (NCI-H1915; first compound 0.1 µM) was 0.743, the relative viability (NCI-H1915; first compound 0.3162 µM) was 0.555 and the relative viability (NCI-H1915; first compound 1 µM) was 0.434. For the same compound, the relative viability (NCI-H1944; first compound 0.01 µM) was 0.85, the relative viability (NCI-H1944; first compound 0.03162 µM) was 0.838 and the relative viability (NCI-H1944; first compound 0.1 µM) was 0.871. It also gave a relative viability (NCI-H1944; first compound 0.3162 µM) of 0.82, a relative viability (NCI-H1944; first compound 1 µM) of 0.689 and a relative viability (NCI-H1975; first compound 0.01 µM) of 0.21. The relative viability (NCI-H1975; first compound 0.03162 µM) was 0.201, the relative viability (NCI-H1975; first compound 0.1 µM) was 0.0969 and the relative viability (NCI-H1975; first compound 0.3162 µM) was 0.173. It also gave a relative viability (NCI-H1975; first compound 1 µM) of 0.127, a relative viability (NCI-H2085; first compound 0.01 µM) of 0.47 and a relative viability (NCI-H2085; first compound 0.03162 µM) of 0.468. It also gave a relative viability (NCI-H2085; first compound 0.1 µM) of 0.475, a relative viability (NCI-H2085; first compound 0.3162 µM) of 0.459 and a relative viability (NCI-H2085; first compound 1 µM) of 0.374. It also gave a relative viability (NCI-H2170; first compound 0.01 µM) of 0.644, a relative viability (NCI-H2170; first compound 0.03162 µM) of 0.666 and a relative viability (NCI-H2170; first compound 0.1 µM) of 0.71. The relative viability (NCI-H2170; first compound 0.3162 µM) was 0.833, the relative viability (NCI-H2170; first compound 1 µM) was 0.724 and the relative viability (NCI-H358; first compound 0.01 µM) was 0.275. For the same compound, the relative viability (NCI-H358; first compound 0.03162 µM) was 0.292, the relative viability (NCI-H358; first compound 0.1 µM) was 0.307 and the relative viability (NCI-H358; first compound 0.3162 µM) was 0.545. It also gave a relative viability (NCI-H358; first compound 1 µM) of 0.142, a relative viability (NCI-H460; first compound 0.01 µM) of 0.0439 and a relative viability (NCI-H460; first compound 0.03162 µM) of 0.0339. For the same compound, the relative viability (NCI-H460; first compound 0.1 µM) was 0.036, the relative viability (NCI-H460; first compound 0.3162 µM) was 0.026 and the relative viability (NCI-H460; first compound 1 µM) was 0.0276. The relative viability (SK-LU-1; first compound 0.01 µM) was 0.193, the relative viability (SK-LU-1; first compound 0.03162 µM) was 0.209 and the relative viability (SK-LU-1; first compound 0.1 µM) was 0.192. The relative viability (SK-LU-1; first compound 0.3162 µM) was 0.206, the relative viability (SK-LU-1; first compound 1 µM) was 0.123 and the relative viability (SW 900; first compound 0.01 µM) was 0.182. For the same compound, the relative viability (SW 900; first compound 0.03162 µM) was 0.18, the relative viability (SW 900; first compound 0.1 µM) was 0.201 and the relative viability (SW 900; first compound 0.3162 µM) was 0.159. For the same compound, the relative viability (SW 900; first compound 1 µM) was 0.146, the relative viability (UMC-11; first compound 0.01 µM) was 1.14 and the relative viability (UMC-11; first compound 0.03162 µM) was 0.999. The relative viability (UMC-11; first compound 0.1 µM) was 1.09, the relative viability (UMC-11; first compound 0.3162 µM) was 0.593 and the relative viability (UMC-11; first compound 1 µM) was 0.384.
